Experiment [1] deals with mAb CHO-131. Briefly: Glycan microarray analysis (Consortium for Functional Glycomics, printed array version 4.0), glycan binding of mAb CHO-131. Conditions: for RFU: mAb CHO-131 at 50 μg/ml, average RFU of 6 replicates after removal of highest and lowest values. The procedure: (§1) mAb CHO-131 was purchased from R&D Systems (MAB996). mAb CSLEX was purchased form BD Biosciences (551344). Glycan microarray analysis was carried out by the Consortium for Functional Glycomics. Glycan microarrays were printed as described (Blixt 2004). Version 4.0 of the printed glycan array was used for analysis. Binding analysis was performed at 50 μg/ml of antibody. Data are reported as average RFU of 6 replicates after removal of highest and lowest values.

For experiment [2], the system named is mAb CSLEX. Briefly: Glycan microarray analysis (Consortium for Functional Glycomics, printed array version 4.0), glycan binding of mAb CSLEX. The following applies: mAb CSLEX at 50 μg/ml; average RFU of 6 replicates after removal of highest and lowest values. As to the method: as §1

Data on 35 compounds can be found in patent US20120202701A1, “AN ANTIBODY-GLYCAN COMPLEX TARGETING THE DISIALYL CORE II AND SIALYL LEWIS X STRUCTURES, AND USES THEREOF INVOLVING ANALYSIS OF STEM CELLS OR CANCER CELLS” (GLYKOS FINLAND OY, priority 2009, published 2012).

As to `CC(=O)N[C@H]1[C@H](OCCCN)O[C@H](CO)[C@@H](O)[C@@H]1O[C@@H]1O[C@H](C(=O)O)[C@@H](O)[C@H](O)[C@H]1O` [Chart Number 299, GlcAb1-3GlcNAcb-Sp8, reference compound], the “binding to CHO-131 antibody, in words” value in experiment [1] (glycan microarray, as described) is listed as “some binding”.

In the case of `NCCCO[C@@H]1O[C@H](COS(=O)(=O)O)[C@@H](O[C@@H]2O[C@H](CO)[C@H](O)[C@H](OS(=O)(=O)O)[C@H]2O)[C@H](O)[C@H]1O` [compound 25], the RFU in experiment [1] was 903 RFU.

As for `CC(=O)N[C@H]1[C@H](OCCN)O[C@H](COS(=O)(=O)O)[C@@H](O[C@@H]2O[C@H](CO)[C@H](O)[C@H](OS(=O)(=O)O)[C@H]2O)[C@@H]1O` [compound 31], in experiment [1], the RFU was 266 RFU.

`CC(=O)N[C@H]1[C@H](OCCCN)O[C@H](COS(=O)(=O)O)[C@@H](O[C@@H]2O[C@H](CO)[C@H](O)[C@H](OS(=O)(=O)O)[C@H]2O)[C@@H]1O` [compound 32] returned an RFU in experiment [1] of 584 RFU.

In turn, `NCCCO[C@@H]1O[C@H](CO)[C@H](O)[C@H](OS(=O)(=O)O)[C@H]1O` [compound 35] had an RFU in experiment [1] of 345 RFU.

In experiment [1], `CC(=O)N[C@H]1[C@H](OCCN)O[C@H](CO)[C@@H](O[C@@H]2O[C@H](COS(=O)(=O)O)[C@H](OS(=O)(=O)O)[C@H](O)[C@H]2O)[C@@H]1O` [compound 36] had an RFU of 427 RFU.

For the compound `NCCCO[C@@H]1O[C@H](COS(=O)(=O)O)[C@@H](O[C@@H]2O[C@H](COS(=O)(=O)O)[C@H](O)[C@H](O)[C@H]2O)[C@H](O)[C@H]1O` [compound 42], in experiment [1], the RFU was determined as 505 RFU.

Consider `CC(=O)N[C@H]1[C@H](OCCN)O[C@H](CO)[C@@H](O[C@@H]2O[C@H](CO)[C@H](O)[C@H](O[C@H]3O[C@H](CO)[C@H](O)[C@H](O)[C@H]3NC(C)=O)[C@H]2O[C@@H]2O[C@@H](C)[C@@H](O)[C@@H](O)[C@@H]2O)[C@@H]1O` [compound 82], for which the RFU in experiment [2] was found to be 30 RFU.

`CC(=O)N[C@H]1[C@H](O[C@H]2[C@@H](O)[C@@H](CO)O[C@H](OCCCN)[C@@H]2NC(C)=O)O[C@H](CO)[C@H](O)[C@@H]1O` [compound 91] returned an RFU in experiment [2] of 56 RFU.

The compound `CC(=O)NC1C(O)CC(OC2C(O)C(OC3C(CO)OC(OCCN)C(O)C3O)OC(CO)C2OC2OC(CO)C(O)C(OC3OC(CO)C(O)C(O)C3O)C2NC(C)=O)(C(=O)O)OC1C(O)C(O)CO` (centres unmarked) [compound 135] gave an RFU in experiment [2] of 28 RFU.

In turn, `CC(=O)N[C@H]1[C@H](O[C@@H]2[C@H](O)[C@@H](O)[C@H](O[C@H]3[C@H](O)[C@@H](O)[C@H](OCCCN)O[C@@H]3CO)O[C@@H]2CO)O[C@H](CO)[C@H](O)[C@@H]1O[C@@H]1O[C@H](CO)[C@H](O)[C@H](O)[C@H]1O` [compound 136] yielded an RFU in experiment [2] of 58 RFU.

Turning to `NCCCO[C@@H]1O[C@H](CO)[C@H](O)[C@H](O[C@@H]2O[C@H](CO)[C@H](O)[C@H](O)[C@H]2O)[C@H]1O` [compound 137], the RFU in experiment [2] is 37 RFU.

As to `CC(=O)N[C@H]1[C@H](O[C@@H]2[C@H](O)[C@@H](O)[C@H](O[C@H]3[C@H](O[C@@H]4O[C@@H](C)[C@@H](O)[C@@H](O)[C@@H]4O)[C@@H](NC(C)=O)[C@H](OCCN)O[C@@H]3CO)O[C@@H]2CO)O[C@H](CO)[C@@H](O[C@@H]2O[C@H](CO)[C@H](O)[C@H](O)[C@H]2O)[C@@H]1O[C@@H]1O[C@@H](C)[C@@H](O)[C@@H](O)[C@@H]1O` [compound 144], the RFU in experiment [2] was 28 RFU.

In turn, `NCCO[C@@H]1O[C@H](COS(=O)(=O)O)[C@@H](O[C@@H]2O[C@H](CO)[C@H](O)[C@H](O)[C@H]2O)[C@H](O)[C@H]1O` [compound 146] showed an RFU in experiment [1] of 148 RFU.

In the case of `CC(=O)N[C@H]1[C@H](O[C@H]2[C@@H](O)[C@@H](CO)O[C@@H](O[C@H]3[C@H](O)[C@@H](O)[C@H](OCCN)O[C@@H]3CO)[C@@H]2O)O[C@H](CO)[C@@H](O[C@@H]2O[C@H](CO)[C@H](O)[C@H](O)[C@H]2O)[C@@H]1O` [compound 155], in experiment [2], the RFU was 29 RFU.

Turning to `CC(=O)N[C@H]1[C@H](OCCCN)O[C@H](CO)[C@@H](O[C@@H]2O[C@H](CO)[C@H](O)[C@H](O)[C@H]2O)[C@@H]1O` [compound 161], in experiment [2], the RFU is listed as 34 RFU.

With `CC(=O)N[C@H]1[C@H](O[C@H]2[C@@H](O)[C@@H](CO)O[C@@H](OCCCN)[C@@H]2O)O[C@H](CO)[C@@H](O)[C@@H]1O` [compound 171], the RFU in experiment [2] turned out to be 106 RFU.

Regarding `CC(=O)N[C@H]1[C@@H](OCCCN)O[C@H](CO[C@@H]2O[C@H](CO)[C@@H](O)[C@H](O)[C@H]2NC(C)=O)[C@H](O[C@@H]2O[C@H](CO)[C@@H](O)[C@H](O)[C@H]2NC(C)=O)[C@@H]1O` [compound 177], the RFU in experiment [2] was found to be 29 RFU.

Consider `CC(=O)N[C@H]1[C@H](OCCCN)O[C@H](CO)[C@@H](O[C@@H]2O[C@H](CO)[C@H](O[C@@H]3O[C@H](CO)[C@@H](O)[C@H](O)[C@H]3NC(C)=O)[C@H](O)[C@H]2O)[C@@H]1O` [compound 178], for which the RFU in experiment [2] stood at 33 RFU.

`NCCCO[C@@H]1O[C@H](CO[C@@H]2O[C@H](CO)[C@@H](O)[C@H](O)[C@H]2O)[C@@H](O)[C@H](O)[C@H]1O` [compound 190] yielded an RFU in experiment [2] of 28 RFU.

`NCCCO[C@H]1O[C@H](C(=O)O)[C@@H](O)[C@H](O)[C@H]1O` [compound 192] gave an RFU in experiment [1] of 227 RFU.

`NCCCO[C@@H]1O[C@H](C(=O)O)[C@@H](O)[C@H](O)[C@H]1O` [compound 193] showed an RFU in experiment [1] of 274 RFU.

On to `CC(=O)N[C@H]1C(OCCCN)O[C@H](COS(=O)(=O)O)[C@@H](O[C@@H]2O[C@H](CO)[C@H](O)[C@H](OS(=O)(=O)O)[C@H]2O)[C@@H]1O[C@@H]1O[C@@H](C)[C@@H](O)[C@@H](O)[C@@H]1O` (some centres unmarked) [compound 210], for which, in experiment [1], the RFU was 403 RFU.

Consider `C[C@@H]1O[C@@H](O[C@H]2[C@H](O[C@H]3[C@H](O)[C@@H](O)C(OCCN)O[C@@H]3COS(=O)(=O)O)O[C@H](COS(=O)(=O)O)[C@H](O)[C@@H]2O)[C@@H](O)[C@H](O)[C@@H]1O` (some centres unmarked) [compound 213], for which the RFU in experiment [1] is reported as 1100 RFU.

Compound `CC(=O)N[C@H]1[C@H](O[C@@H]2[C@H](O[C@]3(C(=O)O)C[C@H](O)[C@@H](NC(C)=O)[C@H]([C@H](O)[C@@H](CO)O[C@]4(C(=O)O)C[C@H](O)[C@@H](NC(C)=O)[C@H]([C@H](O)[C@@H](CO)O[C@]5(C(=O)O)C[C@H](O)[C@@H](NC(C)=O)[C@H]([C@H](O)[C@@H](CO)O[C@]6(C(=O)O)C[C@H](O)[C@@H](NC(C)=O)[C@H]([C@H](O)[C@H](O)CO)O6)O5)O4)O3)[C@@H](O)[C@H](O[C@H]3[C@H](O)[C@@H](O)[C@H](OCCN)O[C@@H]3CO)O[C@@H]2CO)O[C@H](CO)[C@H](O)[C@@H]1O` [compound 215] showed an RFU in experiment [2] of 53 RFU.

Compound `CC(=O)N[C@H]1[C@H](OCCCN)O[C@H](COS(=O)(=O)O)[C@@H](O[C@@H]2O[C@H](CO)[C@H](O)[C@H](O[C@]3(C(=O)O)C[C@H](O)[C@@H](NC(C)=O)[C@H]([C@H](O)[C@H](O)CO)O3)[C@H]2O)[C@@H]1O[C@@H]1O[C@@H](C)[C@@H](O)[C@@H](O)[C@@H]1O` [compound 241] came in with an RFU in experiment [1] of 256 RFU.

Turning to `CC(=O)N[C@H]1[C@H](OCCCN)O[C@H](COS(=O)(=O)O)[C@@H](O[C@@H]2O[C@H](CO[C@]3(C(=O)O)C[C@H](O)[C@@H](NC(C)=O)[C@H]([C@H](O)[C@H](O)CO)O3)[C@H](O)[C@H](O)[C@H]2O)[C@@H]1O` [compound 256], the RFU in experiment [1] stood at 243 RFU.

In experiment [2], `CC(=O)N[C@H]1[C@H](OCCN)O[C@H](CO)[C@@H](O[C@@H]2O[C@H](CO[C@]3(C(=O)O)C[C@H](O)[C@@H](NC(C)=O)[C@H]([C@H](O)[C@H](O)CO)O3)[C@H](O)[C@H](O)[C@H]2O)[C@@H]1O` [compound 257] yielded an RFU of 424 RFU.

In experiment [2], `CC(=O)N[C@H]1[C@H]([C@H](O)[C@H](O)CO)O[C@@](OC[C@H]2O[C@@H](O[C@H]3[C@H](O)[C@@H](O)[C@H](OCCN)O[C@@H]3CO)[C@H](O)[C@@H](O)[C@H]2O)(C(=O)O)C[C@@H]1O` [compound 261] returned an RFU of 45 RFU.

In experiment [2], `CC(=O)N[C@H]1[C@H](O[C@H]2[C@@H](O)[C@@H](CO)O[C@@H](O[C@@H]3[C@@H](NC(C)=O)[C@H](OCCN)O[C@H](CO)[C@H]3O[C@@H]3O[C@@H](C)[C@@H](O)[C@@H](O)[C@@H]3O)[C@@H]2O)O[C@H](CO)[C@@H](O[C@@H]2O[C@@H](C)[C@@H](O)[C@@H](O)[C@@H]2O)[C@@H]1O[C@@H]1O[C@H](CO)[C@H](O)[C@H](O)[C@H]1O` [compound 266] had an RFU of 29 RFU.

In experiment [2], `CC(=O)NC1C(OCCCN)OC(COC2(C(=O)O)CC(O)C(NC(C)=O)C(C(O)C(O)CO)O2)C(O)C1O` (centres unmarked) [compound 267] gave an RFU of 29 RFU.

Compound `C[C@@H]1O[C@@H](O[C@H]2[C@H](O[C@@H]3O[C@H](CO)[C@H](O)[C@H](O)[C@H]3O)[C@@H](COS(=O)(=O)O)OC(OCCN)[C@@H]2O)[C@@H](O)[C@H](O)[C@@H]1O` (some centres unmarked) [compound 281] returned an RFU in experiment [1] of 138 RFU.

Compound `CC(=O)N[C@H]1[C@H](OCCN)O[C@H](CO)[C@@H](O[C@@H]2O[C@H](CO)[C@H](O)[C@H](O[C@]3(C(=O)O)C[C@H](O)[C@@H](NC(C)=O)[C@H]([C@H](O)[C@H](O)COC(C)=O)O3)[C@H]2O)[C@@H]1O` [compound 323] had an RFU in experiment [1] of 271 RFU.

The compound `CC(=O)N[C@H]1[C@H](OCCN)O[C@H](CO)[C@@H](O[C@@H]2O[C@H](CO)[C@H](O)[C@H](O[C@@H]3O[C@H](COS(=O)(=O)O)[C@@H](O)[C@H](O)[C@H]3NC(C)=O)[C@H]2O)[C@@H]1O` [compound 351] came in with an RFU in experiment [1] of 138 RFU.

Compound `CC(=O)N[C@H]1C(OCCN)O[C@H](COS(=O)(=O)O)[C@@H](O)[C@@H]1O[C@@H]1O[C@H](COS(=O)(=O)O)[C@H](O)[C@H](O)[C@H]1O` (some centres unmarked) [compound 440] gave an RFU in experiment [1] of 1773 RFU.
